In publication PMC4669759 (Cell Death & Disease, 2015):
pKi: −log10 of the molar value.

Tests used:
H929 cells = assay: Hallmarks of apoptosis in H929 cells (caspase-3/-7, mitochondrial membrane depolarization, phosphatidylserine); assay type: cell-based, human; settings: H929, 4 h
Method: Figure 4 Indole-2-carboxylic acids induce the hallmarks of apoptosis in MCL-1-dependent cancer cell line H929. (a) Digitonin-permeabilized H929 cells were treated with 10 μM BH3 peptides for 4 h, and intact H929 cells were incubated with increasing concentrations (0.1–10 μM) of A-1208746 for 4 h before assessing the levels of cytochrome c released into the cytosol. (b) H929 and RS4;11 cells were incubated with increasing concentrations of MCL-1 inhibitors or the BCL-2-selective inhibitor ABT-199 (venetoclax) for 48 h before determining cell viability. Cell killing IC50s are plotted with each value representing the mean of three separate experiments. […]
H929 cells were cultured in RPMI 1640 (Invitrogen Corp., Grand Island, NY, USA) supplemented with 10% fetal bovine serum (Invitrogen), 1% sodium pyruvate, 25 mM HEPES, 4.5 g/l glucose, and 1% penicillin/streptomycin (Sigma) and maintained in a humidified chamber at 37 °C containing 5% CO2. […] Following treatment, the hallmarks of apoptosis (activation of caspase-3/-7, mitochondrial membrane depolarization, and phosphatidylserine externalization) were measured using the IntelliCyt (Albuquerque, NM, USA) MultiCyt 4-Plex Apoptosis Screening Kit according to the manufacturer's instructions and read by flow cytometry using a HTFC screening system (IntelliCyt). […] Data were expressed as the percentage of singlet cells. […]

MCL-1 = MCL-1 (Homo sapiens, UniProt Q07820); design: endogenous in cells; host or cells: HCC-1806; method as in PMID 25679114; settings: in the presence of 10% human serum; cited from earlier work
Sequence of MCL-1 (Q07820 whole entry): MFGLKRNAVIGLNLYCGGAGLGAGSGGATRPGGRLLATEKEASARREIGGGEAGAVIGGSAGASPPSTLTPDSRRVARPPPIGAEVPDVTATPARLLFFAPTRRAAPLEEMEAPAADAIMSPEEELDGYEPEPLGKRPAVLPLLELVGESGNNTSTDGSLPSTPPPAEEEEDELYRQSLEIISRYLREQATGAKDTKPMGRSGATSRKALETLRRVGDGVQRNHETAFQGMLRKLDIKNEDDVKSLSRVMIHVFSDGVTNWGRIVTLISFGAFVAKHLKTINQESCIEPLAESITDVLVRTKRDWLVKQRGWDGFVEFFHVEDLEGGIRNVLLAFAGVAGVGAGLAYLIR

EJ-1 cells = assay: Navitoclax / A-1210477 combination cell viability, EJ-1 cells; assay type: cell-based; settings: EJ-1, 48 h
Method: Figure 6 A-1210477 synergizes with navitoclax to kill hematological and solid tumor cell lines. BxPC-3, EJ-1, H23, and OPM-2 cells were treated with increasing concentrations of navitoclax in the presence or absence of increasing concentrations of A-1210477 for 48 h before assessing cell viability. All data points represent the means of triplicate experiments, with error bars indicating the S.E.M. TEXT PRINTED IN THE PICTURE: A-1210477 + navitoclax: Bliss sum (BxPC-3): 716; Bliss sum (EJ-1): 464; Bliss sum (H23): 76; Bliss sum (OPM-2): 946 DOUBTS OF THE COPYIST ABOUT THIS PICTURE: The Bliss sums apply to the combination of A-1210477 and navitoclax. The picture prints the two names separately (legend heading and axis title), not as one joined label.
Adherent cell lines were seeded at 50 000 cells per well in 96-well plates and treated for 48 h with compounds diluted in half-log steps starting at 30 μM and ending at 0.001 μM. Multiple myeloma cell lines were seeded at 15 000–20 000 cells per well and treated similarly. Effects on proliferation and viability were determined using CellTiter-Glo reagent from Promega (Madison, WI, USA) according to the manufacturer's instructions. IC50 values were determined by non-linear regression analysis of the concentration response data.

BCL-2 = BCL-2 (Homo sapiens, UniProt P10415); assay: TR-FRET binding affinity assay, BCL-2
Sequence of BCL-2 (P10415 whole entry): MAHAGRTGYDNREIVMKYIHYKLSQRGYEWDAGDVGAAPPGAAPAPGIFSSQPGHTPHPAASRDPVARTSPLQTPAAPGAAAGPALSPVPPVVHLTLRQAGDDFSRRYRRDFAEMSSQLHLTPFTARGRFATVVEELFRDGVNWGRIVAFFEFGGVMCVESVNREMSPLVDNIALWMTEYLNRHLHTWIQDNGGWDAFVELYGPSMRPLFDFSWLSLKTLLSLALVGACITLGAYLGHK
Method: TR-FRET-binding affinity assays were performed for BCL-2, BCL-XL, and MCL-1 in 4.52 mM monobasic potassium phosphate, 15.48 mM dibasic potassium phosphate, 1 mM sodium EDTA, 0.05% Pluronic F-68 detergent, 50 mM sodium chloride, and 1 mM DTT (pH 7.5) as described previously for BCL-XL.[6] For MCL-1 assays, GST-tagged MCL-1 (1 nM) was mixed with 100 nM f-Bak, 1 nM Tb-labeled anti-GST antibody, and compound at room temperature (RT) for 60 min. Fluorescence was measured on an Envision plate reader (Perkin-Elmer, Waltham, MA, USA) using a 340/35 nm excitation filter and 520/525 (f-Bak) and 495/510 nm (Tb-labeled anti-GST antibody) emission filters.

## Cc1nn(C)c(COc2ccc(N3CCN(S(=O)(=O)N(C)C)CC3)cc2)c1-c1cccc2c(CCCOc3cccc4ccccc34)c(C(=O)O)n(CCN3CCOCC3)c12 [A-1210477]
H929 cells
  induction of hallmarks of apoptosis (mitochondrial membrane depolarization, caspase-3/-7 activation, phosphatidylserine externalization): induced the hallmarks of apoptosis
MCL-1
  shift in MCL-1 affinity: > 15 fold
EJ-1 cells
  potentiation of navitoclax: substantially shifted the dose–response curve of navitoclax
BCL-2
  pKi: 6.88
